How the values were obtained:
[1] = tested on: MCF-10A non-tumorigenic mammary epithelial cells; experiment: Cell Glo luminescence cell growth assay, MCF-10A normal cells; format: cell-based, human; settings: 10 μM, forty-eight hours post-treatment
Description: The CellTiter-Glo® Luminescent Cell Viability Assay (Promega Corporation; Madison, WI) is a homogeneous method of determining the number of viable cells in culture based on quantitation of the ATP present, an indicator of metabolically active cells. The homogeneous assay procedure involves adding the single reagent (CellTiter-Glo® Reagent) directly to cells cultured in serum-supplemented medium. The homogeneous “add-mix-measure” format results in cell lysis and generation of a luminescent signal proportional to the amount of ATP present. The amount of ATP is directly proportional to the number of cells present in culture.
Cancer cells (3,000 cells/well) were harvested in a 96-well plate. Then, the cancer cells were treated with GS compounds and incubated for 24 hours. The MT Cell Viability Substrate, NanoLuc® Enzyme and cell culture medium was equilibrated to 37° C. The 2× RealTime-Glo™ reagent was prepared by diluting the MT Cell Viability Substrate and NanoLuc® Enzyme in 37° C. cell culture medium to a 2× concentration for each reagent. […] The cells were kept for ˜20 minutes in the cell culture incubator and then luminescence was measured by using a plate-reading luminometer. […]
The effects of exemplary compounds on cancer cell lines and one non-tumorigenic cell line (control) were investigated using a high throughput screening assay. More specifically, the effects of the GS compounds on cell growth was evaluated by the XTT assay for cell lines HepG2, HeLa, MCF7 ER+, MDA-MB-231, and MKN-45, and by the Cell Glo luminescence assay for cell lines MIA PaCa-2, HCT-116, MCF-10A, and PANC-1. […]
The effect of GS27 on normal cell growth was evaluated using the MCF-10A cell line. […]
GS27, NDI-091143 and Nexletol (10 μM) were used to treat normal epithelial cells MCF-10A cells. […] Forty-eight hours post-treatment, the growth of MCF-10A cells was evaluated by CellTiter-Glo® Luminescent Cell Viability Assay, as discussed in Example 29.

[2] = tested on: pAKT (S473); experiment: ELISA of pAKT (S473) in PANC-1 cells; format: cell-based, human; settings: rIGF1, 5 μM, 24 hours
Protocol: (§1) ELISA assay was used to evaluate the effect of GS compounds on protein activity levels in PANC-1 cancer cells. PANC-1 cells were serum-starved overnight and then treated with rIGF1 (100 ng/mL) for 24 hours, with or without GS27 (5 μM). The levels of the following proteins were evaluated by ELISA assay: a) p70 S6 (T389) (cat no. 54164C, Cell Signaling); b) pAKT (S473), (cat no. 80895, Cell Signaling); c) pACLY (S455), (cat no. okag1672, Avivasysbio); d) pAMPK (T172) (cat no. 7959C, Cell Signaling) and e) p65/NFKB (S536), (cat no. 7173, Cell Signaling).
(§2) PANC-1 is a human pancreatic ductal adenocarcinoma cell line derived from the carcinoma of a person.
(§3) The molecular mechanism of action of GS27, a compound that has exerted potent anti-cancer activity in different cancer cell lines including pancreatic cancer cells, was investigated. Oleacein has been implicated to have anti-inflammatory and metabolic effects, thus the potential effects of GS27 in different metabolic and inflammatory pathways were evaluated. Specifically, the protein levels of p70 S6 (T389), pAKT (S473), pACLY (S455), pAMPK (T172) and p65/NFKB (S536) were evaluated by ELISA assay in PANC-1 pancreatic cancer cells treated with 5 μM GS27. GS27 reduced p70 S6 and AKT phosphorylation levels, while it increased AMPK phosphorylation.

[3] = tested on: pAMPK (T172); experiment: ELISA of pAMPK (T172) in PANC-1 cells; format: cell-based, human; settings: rIGF1, 5 μM, 24 hours
Protocol: as §1, §2, §3

[4] = tested on: p65/NFKB (S536); experiment: ELISA of p65/NFKB (S536) in PANC-1 cells; format: cell-based, human; settings: rIGF1, 5 μM, 24 hours
Protocol: as §1, §2, §3

[5] = tested on: Raw 264.7 cells; experiment: Raw 264.7 macrophage cell growth (trypan blue count); format: cell-based, BALB/C mice; settings: 1, 10, 25, 50, 100, 200 μM, 24 h
Protocol: The effect of GS27 on the growth of Raw 264.7 cells was evaluated to examine GS27 potential toxicity effects. RAW 264.7 cells are macrophage-like Abelson leukemia virus transformed cell line derived from BALB/C mice. The cell line was obtained from ATCC.
RAW 264.7 cells were maintained at 37° C., in a 5% CO2 and 100% humidity incubator and grown in suspension, in non-adherent flasks, in RPMI 1640-Glutamax to which was added 50 U/mL of penicillin, 50 μg/mL streptomycin and 10% (v/v) fetal bovine serum (FBS). These cells were exposed to increasing doses of GS27 (1, 10, 25, 50, 100, 200 μM) for 24 h and after the exposure period, the cells were harvested with trypsin-EDTA and trypan blue was applied to the cell suspension. Non-colored and blue cells were counted while using an automated cell counter.

[6] = tested on: LNCaP prostate cancer cells; settings: literature; cited from earlier work
[7] = tested on: TNF-α; experiment: ELISA of TNF-α in PMA/LPS-treated THP-1 cells; format: cell-based, human; settings: THP-1, PMA then LPS 100 ng/ml 24 hours, 5 uM compound added 2 hours before LPS
Protocol: Human monocytes (THP-1, ATCC) were cultured in RPMI 1640 media supplemented with HEPES buffer (10 mM), sodium pyruvate (1 mM), glucose (4.5 g/L), fetal bovine serum (10%), penicillin (100 U/mL), streptomycin (100 μg/mL), and 2-mercaptoethanol (0.05 mM). THP-1 cells were treated with PMA (100 ng/ml) for 48 hours and then washed and rested for 24 hours in PMA-free media. These cells were treated with LPS (100 ng/ml) for 24 hours in the presence or absence of 5 uM of […] compounds (added 2 hours before LPS). Cell culture supernatants were collected and IL-1β (cat. No DLB50, R&D Systems), TNF-α (cat. no. DTA00D, R&D Systems) and IL-6 (cat. No D6050, R&D Systems) protein levels were evaluated by ELISA assay.

C/C=C(/C=O)[C@@H](CC=O)CC(=O)SCCc1ccccc1 [GS27, S-phenethyl (3S,4E)-4-formyl-3-(2-oxoethyl)hex-4-enethioate]
effect on MCF-10A normal cell growth [1]: did not have any effect
AKT phosphorylation levels [2]: reduced
AMPK phosphorylation [3]: increased
p65/NFKB activity [4]: inhibiting
effect on Raw 264.7 cell growth [5]: no effect

C/C=C(/C=O)[C@@H](CC=O)CC(=O)OCCc1ccc(O)cc1 [GS19, (3S,4E)-4-formyl-3-(2-oxoethyl)-4-hexenoic acid 2-(4-hydroxyphenyl)ethyl ester, reference compound]
concentration found to reduce LNCaP prostate cancer cell growth [6]: 500 µM

C/C=C(/C=O)[C@@H](CC=O)CC(=O)OCCOc1ccccc1 [GS24, (3S,4E)-4-formyl-3-(2-oxoethyl)-4-hexenoic acid 2-phenoxyethyl ester]
TNF-α protein levels [7]: reducing substantially

— patent publication US12414960B2, “Analogues of oleuropein and oleacein and uses thereof” (Attica Sciences Ltd., priority 2020, dated 2025)
